Laboratory results from patent publication US8969395B2, “Triterpenoid derivatives useful as antiproliferative agents” (Universidade de Coimbra, priority 2009, dated 2015).

Legend:
Format in all cases: cell-based, human
[1] = system: HeLa cells; assay: Apoptosis, Annexin V-FITC/PI FACS, HeLa; conditions: at IC50, 72 h, FIG. 8
Description: (§1) Assessment of apoptosis was performed 72 h after treatment with derivatives at their IC50. Briefly, the same number of HepG2, HeLa, Jurkat and Chang liver cells as in the cell cycle assay were treated with compounds 20, 44, 46 and betulinic acid 2, as described above. Cells were collected washed once in ice-sold binding buffer (10 mM HEPES/NaOH, pH 7.4, 140 mM NaCl, 2.5 mM CaCl2) and ressuspended in the same buffer (95 μl) at a maximum, of 8×10^5 cells/ml. Annexin V-FITC conjugate (1 μg/ml) was added and incubated for 30 min at room temperature in darkness. Just before FACS analysis, cells were stained with 20 μl of […]. Approximately 1×10^4 cells were analysed for each histogram and experiments were performed three times with triplicates per experiment. FACS analysis using Annexin V-FITC staining and PI accumulation was used to differentiate early apoptotic cells (Annexin V^+ and PI^−) from necrotic or late apoptotic cells (Annexin V^+ and PI^+). […] In comparison with untreated controls, compound 44 treatment of HepG2 cells generated apoptosis in 53% of cells (42% of early apoptosis and 11% of late apoptosis), compound 46 generated apoptosis in 38% of cells (28% of early apoptosis plus 10% late apoptosis) and compound 20 induced apoptosis in 29% of cells (22% of early apoptosis plus 7% late apoptosis) (FIG. 8).

[2] = system: Jurkat cells; assay: Cell cycle analysis by flow cytometry (FACS, PI), Jurkat; conditions: compound at its IC50, 72 h
Description: (§2) The effects on the cell cycle of some of these compounds were assessed through flow cytometry by using a fluorescence-activated cell sorter (FACS) (Table 5 below). For this assay 2.3×10^5 HepG2 cells/well, 2.9×10^4 HeLa cells/well, 1.6×10^5 Jurkat cells/well and 1.4×10^5 Chang liver cells/well were plated in 6 well plates with 2 ml of medium. The number of cells was determined by the relationship number of cells/area wells, considering the number of cells that were cultured in 96-well plates. […] Chang liver cells were incubated with compounds 20, […] at concentrations corresponding to the IC80 determined for HepG2 at 72 h. Following 72 h. of incubation, cells were harvested by mild trypsinization, collected by centrifugation and stained in ice-cold Tris-buffered saline (TBS), containing 1 mg/ml PI, 10 mg/ml RNAse free of DNAase and 0.1% Igepal CA-630 for 1 h at 4° C. FACS analysis was carried out at 488 nm in an Epics XL flow cytometer (Coulter Corporation, Hialeah, Fla.). Data from 8×10^3 cells were collected and analyzed using Multicycle program (Phoenix Flow Systems, San Diego, Calif.). All experiments were performed three times with three replicates per experiment. […] To explore the selectivity of the effect on tumor cells, we also tested compounds 20, 44 and 46 in a non-malignant cell line. Chang liver cells were treated with the compounds at the IC80 values determined for HepG2 after 72 h of incubation and no effect was observed, indicating a selective effect of these agents (Table 5 below).

[3] = system: HepG2 cells; assay: Cell cycle analysis by flow cytometry (FACS, PI), HepG2; conditions: for Phase of cell cycle (% of cells) G0/G1 / Phase of cell cycle (% of cells) G2/M / Phase of cell cycle (% of cells) S: HepG2, compound at its IC50, 72 h; for decrease in the percentage of cells in the G0/G1 phase / increase in the population in S phase: HepG2, with respect to untreated cells, at IC50, 72 h
Description: as §2

[4] = system: Jurkat cells; assay: Apoptosis, Annexin V-FITC/PI FACS, Jurkat; conditions: at IC50, 72 h, FIG. 8
Description: as §1

[5] = system: HepG2 cells; assay: Apoptosis, Annexin V-FITC/PI FACS, HepG2; conditions: HepG2, at IC50, 72 h; for effectiveness at inducing apoptosis: FIG. 8; for apoptosis (% of cells, early plus late): in comparison with untreated controls
Description: as §1

[6] = system: Chang liver (normal liver cell line); assay: Apoptosis, Annexin V-FITC/PI FACS, Chang liver; conditions: at the IC80 found for HepG2, FIG. 8
Description: as §1, with “Briefly,” for “Assessment of apoptosis was performed 72 h after treatment with derivatives at their IC50. Briefly,”

[7] = system: Chang liver cells; assay: Cell cycle analysis by flow cytometry (FACS, PI), Chang liver; conditions: for effect on cell cycle in non-malignant cell line: IC80 values determined for HepG2, 72 h; for Phase of cell cycle (% of cells) G0/G1 / Phase of cell cycle (% of cells) G2/M / Phase of cell cycle (% of cells) S: compound at IC80 determined for HepG2, 72 h
Description: The effects on the cell cycle of some of these compounds were assessed through flow cytometry by using a fluorescence-activated cell sorter (FACS) (Table 5 below). For this assay 2.3×10^5 HepG2 cells/well, 2.9×10^4 HeLa cells/well, 1.6×10^5 Jurkat cells/well and 1.4×10^5 Chang liver cells/well were plated in 6 well plates with 2 ml of medium. The number of cells was determined by the relationship number of cells/area wells, considering the number of cells that were cultured in 96-well plates. […] Following 72 h. of incubation, cells were harvested by mild trypsinization, collected by centrifugation and stained in ice-cold Tris-buffered saline (TBS), containing 1 mg/ml PI, 10 mg/ml RNAse free of DNAase and 0.1% Igepal CA-630 for 1 h at 4° C. FACS analysis was carried out at 488 nm in an Epics XL flow cytometer (Coulter Corporation, Hialeah, Fla.). Data from 8×10^3 cells were collected and analyzed using Multicycle program (Phoenix Flow Systems, San Diego, Calif.). All experiments were performed three times with three replicates per experiment. […] To explore the selectivity of the effect on tumor cells, we also tested compounds 20, 44 and 46 in a non-malignant cell line.

[8] = system: HeLa cells; assay: Cell cycle analysis by flow cytometry (FACS, PI), HeLa; conditions: compound at its IC50, 72 h
Description: as §2

C=C(C)[C@@H]1CC[C@]2(C(=O)n3ccnc3)CC[C@]3(C)[C@H](CC[C@@H]4[C@@]5(C)C=CC(=O)C(C)(C)[C@@H]5CC[C@]43C)[C@@H]12 [Compound 46, 28-(1H-imidazol-1-yl)-lup-1,20 (29)-dien-3,28-dione]
effectiveness at inducing apoptosis [1]: extremely effective
Phase of cell cycle (% of cells) G0/G1 [2]: 49.6 ± 2.6 % of cells
Phase of cell cycle (% of cells) G2/M [2]: 20.7 ± 2.4 % of cells
Phase of cell cycle (% of cells) S [2]: 29.8 ± 0.8 % of cells
Phase of cell cycle (% of cells) G0/G1 [3]: 54.7 ± 1.5 % of cells
Phase of cell cycle (% of cells) G2/M [3]: 14.3 ± 1.0 % of cells
Phase of cell cycle (% of cells) S [3]: 30.7 ± 0.6 % of cells
decrease in the percentage of cells in the G0/G1 phase [3]: 7%
increase in the population in S phase [3]: 12%
effectiveness at inducing apoptosis [4]: extremely effective
early apoptosis (Annexin V+ and PI-) [5]: 28%
late apoptosis (Annexin V+ and PI+) [5]: 10%
effectiveness at inducing apoptosis [5]: extremely effective
apoptosis (% of cells, early plus late) [5]: 38 % of cells
apoptosis induction in normal liver cell line [6]: no effect
effect on cell cycle in non-malignant cell line [7]: no effect
Phase of cell cycle (% of cells) G0/G1 [7]: 68.2 ± 4.9 % of cells
Phase of cell cycle (% of cells) G2/M [7]: 9.2 ± 1.4 % of cells
Phase of cell cycle (% of cells) S [7]: 22.6 ± 3.8 % of cells
Phase of cell cycle (% of cells) G0/G1 [8]: 64.6 ± 2.4 % of cells
Phase of cell cycle (% of cells) G2/M [8]: 9.7 ± 1.3 % of cells
Phase of cell cycle (% of cells) S [8]: 25.6 ± 1.5 % of cells

C=C(C)[C@@H]1CC[C@]2(C(=O)n3ccnc3)CC[C@]3(C)[C@H](CC[C@@H]4[C@@]5(C)CCC(=O)C(C)(C)[C@@H]5CC[C@]43C)[C@@H]12 [Compound 44, 28-(1H-imidazol-1-yl)-lup-20(29)-en-3,28-dione]
effectiveness at inducing apoptosis [1]: most effective
Phase of cell cycle (% of cells) G0/G1 [2]: 52.7 ± 0.5 % of cells
Phase of cell cycle (% of cells) G2/M [2]: 20.8 ± 1.1 % of cells
Phase of cell cycle (% of cells) S [2]: 26.6 ± 0.9 % of cells
Phase of cell cycle (% of cells) G0/G1 [3]: 45.6 ± 2.1 % of cells
Phase of cell cycle (% of cells) G2/M [3]: 14.9 ± 1.4 % of cells
Phase of cell cycle (% of cells) S [3]: 39.6 ± 3.6 % of cells
decrease in the percentage of cells in the G0/G1 phase [3]: 16%
increase in the population in S phase [3]: 20%
effectiveness at inducing apoptosis [4]: most effective
early apoptosis (Annexin V+ and PI-) [5]: 42%
late apoptosis (Annexin V+ and PI+) [5]: 11%
effectiveness at inducing apoptosis [5]: most effective
apoptosis (% of cells, early plus late) [5]: 53 % of cells
apoptosis induction in normal liver cell line [6]: no effect
effect on cell cycle in non-malignant cell line [7]: no effect
Phase of cell cycle (% of cells) G0/G1 [7]: 68.2 ± 2.9 % of cells
Phase of cell cycle (% of cells) G2/M [7]: 8.6 ± 0.8 % of cells
Phase of cell cycle (% of cells) S [7]: 23.2 ± 2.5 % of cells
Phase of cell cycle (% of cells) G0/G1 [8]: 53.1 ± 1.1 % of cells
Phase of cell cycle (% of cells) G2/M [8]: 13.8 ± 1.1 % of cells
Phase of cell cycle (% of cells) S [8]: 33.1 ± 0.9 % of cells

C=C(C)[C@@H]1CC[C@]2(CO)CC[C@]3(C)[C@H](CC[C@@H]4[C@@]5(C)CC[C@H](OC(=O)n6ccnc6)C(C)(C)[C@@H]5CC[C@]43C)[C@@H]12 [Compound 20, 28-hydroxy-lup-20(29)-en-3β-yl-1H-imidazole-1-carboxylate]
effectiveness at inducing apoptosis [1]: extremely effective
Phase of cell cycle (% of cells) G0/G1 [2]: 48.6 ± 4.4 % of cells
Phase of cell cycle (% of cells) G2/M [2]: 15.8 ± 2.1 % of cells
Phase of cell cycle (% of cells) S [2]: 35.6 ± 3.1 % of cells
Phase of cell cycle (% of cells) G0/G1 [3]: 49.4 ± 1.2 % of cells
Phase of cell cycle (% of cells) G2/M [3]: 14.5 ± 0.8 % of cells
Phase of cell cycle (% of cells) S [3]: 36.1 ± 0.8 % of cells
decrease in the percentage of cells in the G0/G1 phase [3]: 12%
increase in the population in S phase [3]: 17%
effectiveness at inducing apoptosis [4]: extremely effective
early apoptosis (Annexin V+ and PI-) [5]: 22%
late apoptosis (Annexin V+ and PI+) [5]: 7%
effectiveness at inducing apoptosis [5]: extremely effective
apoptosis (% of cells, early plus late) [5]: 29 % of cells
apoptosis induction in normal liver cell line [6]: no effect
effect on cell cycle in non-malignant cell line [7]: no effect
Phase of cell cycle (% of cells) G0/G1 [7]: 68.6 ± 4.2 % of cells
Phase of cell cycle (% of cells) G2/M [7]: 9.3 ± 1.3 % of cells
Phase of cell cycle (% of cells) S [7]: 22.0 ± 3.0 % of cells
Phase of cell cycle (% of cells) G0/G1 [8]: 50.6 ± 1.3 % of cells
Phase of cell cycle (% of cells) G2/M [8]: 13.0 ± 1.4 % of cells
Phase of cell cycle (% of cells) S [8]: 36.4 ± 2.4 % of cells
